Read-outs that look alike come from different tables or passages of the source.
Legend:
[1] = Solubility test in solvents, up to 200 vol (Table 1); type: physicochemical; settings: organic solvent or mixture, thermodynamic from solid, about 5 mg compound, solvent named in the row (c1)
Source text: Then, the solvents were evaporated at room temperature for drying and XRPD patterns of the obtained dried materials were confirmed.

[2] = Particle size analysis by laser diffraction; type: physicochemical; settings: dry module, 2 bar
Description: The particle sizes of the crystalline form of Comparative Examples 1 and 2 and Example 39 were analyzed using a laser diffraction-based particle size analyzer (Mastersizer 2000®, Malvern). After each sample was fed into a dry module (Scirocco 2000®, Malvern) at a pressure of 2 bar, the 50% volume particle diameter (d(0.5)) and 90% volume particle diameter (d(0.9)) of the particles were measured.

[3] = Related substance creation under stress conditions (HPLC); type: physicochemical; settings: stress conditions 60±2° C. and 85±5% (RH), sealed glass vial; for Total related substance: after 4 week storage
Description: Each raw material was sealed in a glass vial and sampled at different elapsed time. The samples were evaluated by HPLC analysis. […] Based on the above results, the crystalline forms A and G were selected and used for the study for manufacturing an oral pharmacological composition.

[4] = Pharmacokinetic properties of crystalline forms after oral administration; type: in vivo; settings: single oral dose, male SD rats; for AUC / Cmax / Tmax: about 5 mg in 10 mL 0.5% methylcellulose, 10 mL/Kg
Description: The pharmacokinetic properties of the different crystalline forms of the compound of Formula 1 were analyzed in vivo. About 5 mg of each of the crystalline form A of Preparative Example 5 and the crystalline form G of Preparative Example 6 was suspended in 10 mL of a 0.5% methylcellulose solution to produce a formulation for oral use. Then, 6 week old male SD rats (Orient Bio. Inc., Korea) were divided into two groups. About 3 mL (10 mL/Kg) of the oral formulation was once administered orally to each rat and blood samples were drawn from the rat at predetermined intervals of 0.167, 0.5, 1.0, 2.0, 4.0, 6.0, 8.0, and 24.0 hr. The blood samples were used to analyze the pharmacokinetic parameters of the crystalline form.
The pharmacokinetic parameters of the crystalline forms were analyzed using Waters Quattro premier XE 2795 Alliance HT (Waters) under the following conditions: flow rate=0.25 ml/min, column temperature=40° C., injection volume=7 μL, and mobile phase=A: 1 mM ammonium acetate & 0.1% acetic acid (35%), B: ACN (65%). Linearity was established with 8 different standard concentrations.
The oral formulations including the compound of Preparative Example 5 and the compound of Preparative Example 6, respectively, were administered to the different rats.

[5] = Storage stability of crystalline forms (appearance, XRD, related substances); type: physicochemical; settings: 25° C./97% RH and 40° C./75% RH, 7 days; for State of crystalline form (XRD): hard capsules; for Appearance and crystalline structures / Creation of related substances: uncapped glass vial
Description: Additionally, the crystalline forms of the compound of Formula 1 were evaluated for storage stability. The crystalline form A of Preparative […] conditions (25° C./97% RH) and accelerated storage conditions (40° C./75% RH) for 7 days. X-ray diffraction analysis was performed in accordance with the same method as described in Preparative Examples 5 and 6.

[6] = Solubility test in 28 solvents at r.t. and 50° C. (Table 2)
Description: When dissolution was incomplete during the experiment, the solution was maturated by repeatedly heating to 50° C. and then cooling to room temperature 8 times for 24 hr in an incubation chamber. After maturation, the solvent was dried at room temperature.
During the experiment, the completely dissolved solution was stored under a cold condition (4° C.) for 24 hr to allow crystal formation, recovered and dried at room temperature. Then XRPD analysis was performed.

[7] = Light stability of crystalline form A in capsules; type: physicochemical; settings: light stress storage conditions
Description: The crystalline form A was filled in a hard capsule (2 mg per capsule) and stored under the light stress conditions shown in Table 11. Thereafter, the appearance of the crystalline form A, the retention time of the major peak, the amounts (%) of related substances, and the compound content were analyzed.

[8] = Dissolution rates of crystalline forms in hard capsules; type: physicochemical; settings: 900 ml pH 1.2 solution, 50 and 100 rpm, 37±0.5° C., 2 hr
Description: In this example, the dissolution rates of the crystalline forms of the compound of Formula 1 were examined. Specifically, each of the crystalline form A of Preparative Example 5 and the crystalline form G of Preparative Example 6 was filled in hard capsules and was then eluted in 900 ml of a pH 1.2 solution at different revolution numbers of 50 and 100 rpm and a temperature of 37±0.5° C. for 2 hr. The eluted particles were analyzed under the following HPLC conditions:
Column: Hypurity C18, 250×4.6 mm, 5 μm or its equivalent column
Detector: UV absorption spectrometer (measured at 325 nm)
Column temperature: 30° C.
Mobile phase: A—acetonitrile, B—water, A:B=60:40, v/v %

CC1(C)OC(c2ccc(S(N)(=O)=O)cc2)=C(c2cccc(F)c2)C1=O [Example 5]
solubility ([1]; read-out: Solubility at 200 vol (1000 uL)): < 5000 µg/mL

CC1(C)OC(c2ccc(S(N)(=O)=O)cc2)=C(c2cccc(F)c2)C1=O [Comparative Example 2]
Particle size d(0.1) [2]: 5.15 μm
Particle size d(0.5), 50% volume particle diameter [2]: 32.17 μm
Particle size d(0.9), 90% volume particle diameter [2]: 83.54 μm

CC1(C)OC(c2ccc(S(N)(=O)=O)cc2)=C(c2cccc(F)c2)C1=O [Preparative Example 6]
Total related substance [3]: about 0.1%
AUC [4]: 2416.835 ng·h/mL
Cmax [4]: 513.614 ng/mL
Tmax [4]: 60 min
State of crystalline form (XRD) [5]: maintained stable
Appearance and crystalline structures [5]: remained unchanged
Creation of related substances [5]: rarely observed

CC1(C)OC(c2ccc(S(N)(=O)=O)cc2)=C(c2cccc(F)c2)C1=O [compound of Formula 1]
Dissolution in solvent volume up to 100 times, heated up to 50° C. ([6]; IPA, Toluene, TBME, Diethyl ether, Heptane, water): not dissolved
Dissolution in solvent volume 10 times the raw material ([6]; acetone, 2-butanone, THF, DMSO, Methylpyrrolidine, Dioxane, acetonitrile aqueous solution, NMP, 1-methoxy-IPA): dissolved
Dissolution in solvent volume 20 times to 40 times the raw material ([6]; ethyl acetate, acetonitrile, MIBK, DCM, Nitromethane): dissolved

CC1(C)OC(c2ccc(S(N)(=O)=O)cc2)=C(c2cccc(F)c2)C1=O [Preparative Example 5]
Time until related substances exceeded the criteria [7]: ≤ 7 days
Total related substance [3]: about 0.1%
AUC ([4]; male, SD, rat, blood, po, 5 mg, read-out: AUC): 2320 ng·h/mL
Cmax ([4]; male, SD, rat, blood, po, 5 mg, read-out: Cmax): 751 ng/mL
Tmax ([4]; male, SD, rat, blood, po, 5 mg, read-out: Tmax): 30 min
In vivo dissolution rates (blood levels over time) [4]: higher in vivo dissolution rates than the crystalline form G of Preparative Example 6
Dissolution rate [8]: higher dissolution rates than the crystalline form G
State of crystalline form (XRD) [5]: maintained stable
Appearance and crystalline structures [5]: remained unchanged
Creation of related substances [5]: rarely observed

CC1(C)OC(c2ccc(S(N)(=O)=O)cc2)=C(c2cccc(F)c2)C1=O [crystalline form B]
Level of total related substance over time [3]: rapidly increased

CC1(C)OC(c2ccc(S(N)(=O)=O)cc2)=C(c2cccc(F)c2)C1=O [Example 4]
solubility ([1]; read-out: Solubility at 100 vol (500 uL)): > 10000 µg/mL

CC1(C)OC(c2ccc(S(N)(=O)=O)cc2)=C(c2cccc(F)c2)C1=O [Comparative Example 1]
Particle size d(0.1) [2]: 40.55 μm
Particle size d(0.5), 50% volume particle diameter [2]: 136.49 μm
Particle size d(0.9), 90% volume particle diameter [2]: 527.04 μm
